# Results reported in article PMC9726829, “Structures and mechanism of chitin synthase and its inhibition by antifungal drug Nikkomycin Z” (Cell Discovery, 2022).
# T1: S. cerevisiae Chs1 (Saccharomyces cerevisiae, UniProt P08004)
# T1 construct: expressed and purified membrane protein, homodimer; residues numbered to 1131; residues 1-377, 699-703, 897-907, 1076-1084 not resolved
# T1 sequence (P08004 1-1131): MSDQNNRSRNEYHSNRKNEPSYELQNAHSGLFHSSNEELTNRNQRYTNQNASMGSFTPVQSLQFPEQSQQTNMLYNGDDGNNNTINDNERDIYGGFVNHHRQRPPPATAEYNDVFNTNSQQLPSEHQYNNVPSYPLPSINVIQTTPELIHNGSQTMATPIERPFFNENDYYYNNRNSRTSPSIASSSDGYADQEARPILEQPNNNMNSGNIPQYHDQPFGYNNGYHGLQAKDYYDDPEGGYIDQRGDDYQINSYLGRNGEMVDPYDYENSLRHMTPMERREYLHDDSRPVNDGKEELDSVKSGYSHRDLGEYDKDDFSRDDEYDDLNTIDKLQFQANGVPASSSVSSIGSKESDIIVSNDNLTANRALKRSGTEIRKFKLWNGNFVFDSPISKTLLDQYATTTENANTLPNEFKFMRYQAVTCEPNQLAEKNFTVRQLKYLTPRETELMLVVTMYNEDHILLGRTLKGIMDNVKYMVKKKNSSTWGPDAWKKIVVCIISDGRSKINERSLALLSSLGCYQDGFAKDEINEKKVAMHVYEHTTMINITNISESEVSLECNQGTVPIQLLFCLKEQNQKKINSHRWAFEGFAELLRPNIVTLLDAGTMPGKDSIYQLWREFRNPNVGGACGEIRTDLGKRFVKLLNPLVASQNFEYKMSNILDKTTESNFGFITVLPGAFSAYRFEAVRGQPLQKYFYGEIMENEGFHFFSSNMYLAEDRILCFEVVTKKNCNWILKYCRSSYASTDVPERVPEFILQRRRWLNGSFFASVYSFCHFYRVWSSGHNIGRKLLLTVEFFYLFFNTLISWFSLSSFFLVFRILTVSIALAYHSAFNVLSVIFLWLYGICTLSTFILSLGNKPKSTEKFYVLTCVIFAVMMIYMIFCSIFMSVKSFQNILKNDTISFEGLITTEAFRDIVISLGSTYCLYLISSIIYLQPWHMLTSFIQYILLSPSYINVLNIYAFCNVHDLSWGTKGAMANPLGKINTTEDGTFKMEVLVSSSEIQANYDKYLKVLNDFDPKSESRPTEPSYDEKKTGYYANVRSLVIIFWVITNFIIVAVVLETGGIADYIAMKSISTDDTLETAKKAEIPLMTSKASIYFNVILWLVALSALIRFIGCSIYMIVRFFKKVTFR
# Legend:
# [1] = biological target: T1, S. cerevisiae Chs1; assay: in vitro chitin synthase activity assay; type: biochemical; conditions: activator; UDP-GlcNAc as donor substrate
# [2] = biological target: T1, S. cerevisiae Chs1; assay: in vitro chitin synthase activity assay; cryo-EM structure of the complex at […] A also solved; type: biochemical
# [3] = biological target: the molecule itself; assay: cryo-EM structure; purified Chs1 in complex with Nikkomycin Z (NikZ), in detergent micelle; 2.9 Å, imposed C2 symmetry
molecule,measurement,setting,value
CC(=O)N[C@H]1C(O)O[C@H](CO)[C@@H](O)[C@@H]1O (stereo partly drawn) [N-acetylglucosamine],in vitro chitin synthase activity assay,[1],Chs1 activity can be significantly stimulated by GlcNAc
C[C@@H]([C@H](N)C(=O)N[C@H](C(=O)O)[C@H]1O[C@@H](n2ccc(=O)[nH]c2=O)[C@H](O)[C@@H]1O)[C@H](O)c1ccc(O)cn1 [Nikkomycin Z],IC50,[2],367 nM
"S. cerevisiae chitin synthase Chs1 (enzyme, Chitin synthase 1 (Chs1) of S. cerevisiae; residues 1-377, 699-703, 897-907 and 1076-1084 are not resolved in the map; Homodimer; source: expressed and purified) MSDQNNRSRNEYHSNRKNEPSYELQNAHSGLFHSSNEELTNRNQRYTNQNASMGSFTPVQSLQFPEQSQQTNMLYNGDDGNNNTINDNERDIYGGFVNHHRQRPPPATAEYNDVFNTNSQQLPSEHQYNNVPSYPLPSINVIQTTPELIHNGSQTMATPIERPFFNENDYYYNNRNSRTSPSIASSSDGYADQEARPILEQPNNNMNSGNIPQYHDQPFGYNNGYHGLQAKDYYDDPEGGYIDQRGDDYQINSYLGRNGEMVDPYDYENSLRHMTPMERREYLHDDSRPVNDGKEELDSVKSGYSHRDLGEYDKDDFSRDDEYDDLNTIDKLQFQANGVPASSSVSSIGSKESDIIVSNDNLTANRALKRSGTEIRKFKLWNGNFVFDSPISKTLLDQYATTTENANTLPNEFKFMRYQAVTCEPNQLAEKNFTVRQLKYLTPRETELMLVVTMYNEDHILLGRTLKGIMDNVKYMVKKKNSSTWGPDAWKKIVVCIISDGRSKINERSLALLSSLGCYQDGFAKDEINEKKVAMHVYEHTTMINITNISESEVSLECNQGTVPIQLLFCLKEQNQKKINSHRWAFEGFAELLRPNIVTLLDAGTMPGKDSIYQLWREFRNPNVGGACGEIRTDLGKRFVKLLNPLVASQNFEYKMSNILDKTTESNFGFITVLPGAFSAYRFEAVRGQPLQKYFYGEIMENEGFHFFSSNMYLAEDRILCFEVVTKKNCNWILKYCRSSYASTDVPERVPEFILQRRRWLNGSFFASVYSFCHFYRVWSSGHNIGRKLLLTVEFFYLFFNTLISWFSLSSFFLVFRILTVSIALAYHSAFNVLSVIFLWLYGICTLSTFILSLGNKPKSTEKFYVLTCVIFAVMMIYMIFCSIFMSVKSFQNILKNDTISFEGLITTEAFRDIVISLGSTYCLYLISSIIYLQPWHMLTSFIQYILLSPSYINVLNIYAFCNVHDLSWGTKGAMANPLGKINTTEDGTFKMEVLVSSSEIQANYDKYLKVLNDFDPKSESRPTEPSYDEKKTGYYANVRSLVIIFWVITNFIIVAVVLETGGIADYIAMKSISTDDTLETAKKAEIPLMTSKASIYFNVILWLVALSALIRFIGCSIYMIVRFFKKVTFR",stoichiometry N,[3],2
